Results published in ChEMBL document CHEMBL6071160, “Identification of a novel 10-hydroxyevodiamine prodrug as a potent topoisomerase inhibitor with improved aqueous solubility for treatment of hepatocellular carcinoma” (Eur J Med Chem, 2024).
The source made the active and inactive calls. The rule behind the calls is not given here.

Tests used:
SK-HEP1 [1] = experiment: Antiproliferative activity against human SK-HEP1 cells assessed as inhibition of cell proliferation incubated for 72 hrs by MTT assay; type: functional, cell-based; settings: SK-HEP1, 72 h
[2] = Aqueous solubility of the compound […] measured after 72 hrs in shaking by HPLC analysis; type: physicochemical
[3] = Prodrug conversion in rat plasma assessed as half life by measuring parent 10-hydroxyevodiamine derivative release by HPLC analysis; type: ADME, cell-free
[4] = Chemical stability of compound at pH 4.6 assessed as residual rate measured after 2 days; type: physicochemical; settings: buffer, time 2 day, read-out: Stability
[5] = Half life in Sprague-Dawley rat at 10 mg/kg, ip measured upto 24 hrs by LC-MS/MS analysis; type: ADME, organism-based; settings: in vivo
[6] = MRT (0 to t) in Sprague-Dawley rat at 10 mg/kg, ip measured upto 24 hrs by LC-MS/MS analysis; type: ADME, organism-based; settings: in vivo
Huh-7 [7] = experiment: In vivo antitumor activity against human Huh-7 cells subcutaneously injected into BALB/C nude mouse assessed as tumor growth inhibition at 10 mg/kg, ip administered once daily measured after 14 days; type: functional; settings: Huh-7, 336 h, time 14 day, read-out: TGI
Huh-7 [8] = experiment: Induction of cell cycle arrest in human Huh-7 cells assessed as accumulation of cells at G2 phase 80 nM measured after 24 hrs by flow cytometric assay (reference value: 13.66%); type: functional
Huh-7 [9] = experiment: Induction of cell cycle arrest in human Huh-7 cells assessed as accumulation of cells at S phase 80 nM measured after 24 hrs by flow cytometric assay (reference value: 23.33%); type: functional
Huh-7 [10] = experiment: Induction of cell cycle arrest in human Huh-7 cells assessed as accumulation of cells at S phase 40 nM measured after 24 hrs by flow cytometric assay (reference value: 23.33%); type: functional
SK-HEP1 [11] = experiment: Induction of cell cycle arrest in human SK-HEP1 cells assessed as accumulation of cells at S phase 40 nM measured after 24 hrs by flow cytometric assay (reference value: 30.04%); type: functional
Huh-7 [12] = experiment: Induction of apoptosis in human Huh-7 cells assessed as viable cells at 80 nM measured after 24 hrs by Annexin-V-FITC/PI analysis (reference value: 97.46%); type: functional; settings: read-out: Activity
Huh-7 [13] = experiment: Induction of apoptosis in human Huh-7 cells assessed as necrotic cells at 20 nM measured after 24 hrs by Annexin-V-FITC/PI analysis (reference value: 0.27%); type: functional
SK-HEP1 [14] = experiment: Induction of apoptosis in human SK-HEP1 cells assessed as early apoptotic cells at 80 nM measured after 24 hrs by Annexin-V-FITC/PI analysis (reference value: 1.45%); type: functional
SK-HEP1 [15] = experiment: Induction of apoptosis in human SK-HEP1 cells assessed as early apoptotic cells at 20 nM measured after 24 hrs by Annexin-V-FITC/PI analysis (reference value: 1.45%); type: functional
SK-HEP1 [16] = experiment: Induction of apoptosis in human SK-HEP1 cells assessed as viable cells at 40 nM measured after 24 hrs by Annexin-V-FITC/PI analysis (reference value: 97.20%); type: functional; settings: read-out: Activity
SK-HEP1 [17] = experiment: Induction of apoptosis in human SK-HEP1 cells assessed as early apoptotic cells at 40 nM measured after 24 hrs by Annexin-V-FITC/PI analysis (reference value: 1.45%); type: functional
Huh-7 [18] = experiment: Induction of apoptosis in human Huh-7 cells assessed as loss of mitochondrial membrane potential by measuring JC-1 stained cells at 80 nM measured after 24 hrs by JC-1 staining based flow cytometry (reference value: 2.27%); type: functional
Huh-7 [19] = experiment: Induction of apoptosis in human Huh-7 cells assessed as loss of mitochondrial membrane potential by measuring JC-1 stained cells at 40 nM measured after 24 hrs by JC-1 staining based flow cytometry (reference value: 2.27%); type: functional
SK-HEP1 [20] = experiment: Induction of apoptosis in human SK-HEP1 cells assessed as loss of mitochondrial membrane potential by measuring JC-1 stained cells at 20 nM measured after 24 hrs by JC-1 staining based flow cytometry (reference value: 0.49%); type: functional
Huh-7 [21] = experiment: Induction of apoptosis in human Huh-7 cells assessed as ROS generation by measuring DCFH2-DA stained cells at 80 nM measured after 24 hrs […] (reference value: 0.45%); type: functional
Huh-7 [22] = experiment: Induction of apoptosis in human Huh-7 cells assessed as ROS generation by measuring DCFH2-DA stained cells at 20 nM measured after 24 hrs […] (reference value: 0.45%); type: functional
SK-HEP1 [23] = experiment: Induction of apoptosis in human SK-HEP1 cells assessed as ROS generation by measuring DCFH2-DA stained cells at 20 nM measured after 24 hrs […] (reference value: 0.14%); type: functional
Huh-7 [24] = experiment: Inhibition of cell migration in human Huh-7 cells at 40 nM measured for 24 hrs by scratch wound healing assay; type: functional, cell-based
Huh-7 [25] = experiment: Inhibition of cell migration in human Huh-7 cells at 10 nM measured for 24 hrs by scratch wound healing assay; type: functional, cell-based
SK-HEP1 [26] = experiment: Inhibition of cell migration in human SK-HEP1 cells at 40 nM measured for 24 hrs by scratch wound healing assay; type: functional, cell-based
SK-HEP1 [27] = experiment: Inhibition of cell invasion in human SK-HEP1 cells assessed as decrease in number of cells migration into lower compartment at 40 nM measured after 24 hrs by transwell assay; type: functional, cell-based
[28] = Toxicity in BALB/c nude mouse subcutaneously injected with human Huh-7 cells assessed as changes in liver tissue at 10 mg/kg, ip administered once daily measured after 14 days by H and E staining based assay; type: organism-based; settings: in vivo, 336 h, time 14 day
[29] = Toxicity in BALB/c nude mouse subcutaneously injected with human Huh-7 cells assessed as changes in lung tissue at 10 mg/kg, ip administered once daily measured after 14 days by H and E staining based assay; type: organism-based; settings: in vivo, 336 h, time 14 day
[30] = Toxicity in BALB/c nude mouse subcutaneously injected with human Huh-7 cells assessed as change in white blood cells at 10 mg/kg, ip administered once daily measured after 14 days; type: organism-based; settings: in vivo, 336 h, time 14 day
[31] = Toxicity in BALB/c nude mouse subcutaneously injected with human Huh-7 cells assessed as change in body weight at 10 to 20 mg/kg, ip administered once daily measured after 14 days; type: organism-based; settings: in vivo, 336 h, dose 10-20 mg/kg, time 14 day

Q: Which results are given for `C[N+](C)(C)CCC(=O)Oc1ccc2[nH]c3c(c2c1)CCN1C(=O)c2cc(F)cc(F)c2N(c2cccc(F)c2)C31.[I-]` (stereo unspecified)?
A: IC50 (SK-HEP1 [1]): 30 nM; solubility thermodynamic at 72 h [2]: 967 µg/mL; t1/2 [3]: 0.5 h; remaining at 48 h [4]: 63.1%; half-life [5]: 3.15 h; MRT last at 24 h [6]: 4.64 h; inhibition in vivo at 10 mg/kg (Huh-7 [7]): 83.3%; Activity (Huh-7 [8]): 86.5%; Activity (Huh-7 [9]): 6.71%; Activity (Huh-7 [10]): 21.3%; Activity (SK-HEP1 [11]): 31.15%; viability at 0.08 µM (Huh-7 [12]): 79.7%; Activity (Huh-7 [13]): 0.11%; Activity (SK-HEP1 [14]): 22.57%; Activity (SK-HEP1 [15]): 1.59%; viability at 0.04 µM (SK-HEP1 [16]): 93.1%; Activity (SK-HEP1 [17]): 5.11%; Activity (Huh-7 [18]): 12.52%; Activity (Huh-7 [19]): 3.05%; Activity (SK-HEP1 [20]): 0.78%; Activity (Huh-7 [21]): 17.92%; Activity (Huh-7 [22]): 0.73%; Activity (SK-HEP1 [23]): 0.47%; inhibition (Huh-7 [24]): Active; inhibition (Huh-7 [25]): Active; inhibition (SK-HEP1 [26]): Active; inhibition (SK-HEP1 [27]): Active; Activity [28]: Non-Toxic; Activity [29]: Non-Toxic; Activity [30]: Non-Toxic; Activity [31]: Non-Toxic
